According to US11944605B2, “Rapamycin analogs and uses thereof” (Janssen Pharmaceutica NV, priority 2018, dated 2024):
“Also recorded” adds a separate entry of the source.

Assays:
Type in all cases: cell-based
[1] = test system: pS6K1 (p-p70 S6 Kinase (Thr389)) in MCF-7 cells; test: AlphaLISA Ultra pS6K1 Assay; settings: Homo sapiens, 1.5 h; MCF7 cells, 90 min
In short: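 AlphaLISA Ultra read-out (acceptor beads 2 h, then donor beads 2 h) on thawed lysates of MCF-7 cells. Cells had 20–24 h after seeding and a 2 h medium change, then 90 min of compound exposure at 0.5% final DMSO, with lysates stored at −80 °C.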

mTORC1 over mTORC2 = test: mTORC1 selectivity over mTORC2 at 24 hrs (Western blot based pS6K1 and pAKT assay); settings: 24 hrs
Procedure: (§1) Western Blot Based pS6K1 and pAKT Assay at 24 and 48 Hour Timepoints
(§2) 1. Seed six well plate with 500,000 PC3 cells per well and incubate for 20˜24 hour.
(§3) 2. Add compounds into the cell plate. Incubate for 24 to 48 hours.
(§4) 4. Plate is placed on ice and the media is removed via aspiration. The wells are washed with 1 mL of 1× PBS and then fully aspirated.
(§5) 5. 110 μL of 1% Triton Lysis Buffer is added and each well is scraped vigorously.
(§6) 6. Cell homogenates are transferred to 1.5 mL eppendorf tubes on ice and spun down at 4° C. for 10 minutes at 10,000 rpm.
(§7) 9. The membranes were washed 3× with TBS-T with a 5 minute incubation between each wash then incubated with secondary antibody (LiCor IRDye 800 Donkey Anti Rabbit) for at least 30 minutes.
(§8) 10. The membranes were washed 3× with TBS-T with a 5 minute incubation between each wash.
(§9) 11. The gels were then incubated for 5 minutes with PBS at room temperature then imaged using a Li-Cor.
“N/A” stands for “not assayed.”

[2] = test system: mTORC1 pathway (pS6K1 T389) in PC3 cells; test: Western blot, mTORC1 pathway (pS6K1) in PC3 cells; settings: PC3 cells, 24 hours
Procedure: as §1, §2, §3, §4, §5, §6, §7, §8, §9
(§10) The methods employed were substantially similar to those described above. Compounds were evaluated in PC3 cells, Jurkat cells, wild-type mouse embryotic fibroblast (MEF) cells, tuberous sclerosis 2 (TSC2) negative (TSC −/−) MEF cells, and tuberous sclerosis 2 (TSC2) positive (TSC +/+) MEF cells. Cells were incubated with compounds of the present invention for various time periods (e.g., 5 minutes, 15 minutes, 30 minutes, 90 minutes, 24 hours, or 48 hours), and evaluated according to known methodologies, such as those herein described.

[3] = test system: mTORC2 pathway (Akt phosphorylation) in PC3 cells; test: Western blot, mTORC2 pathway (pAkt) in PC3 cells; settings: 24 hours
Procedure: as §1, §2, §3, §4, §5, §6, §7, §8, §9, §10

Row | SMILES | IC50 [1] [nM] | mTORC1 selective @ 24 hrs (mTORC1 over mTORC2) | inhibition of the mTORC1 pathway [2] | inhibition of mTORC2 (Akt phosphorylation) [3]
1 | CO[C@@H]1C[C@H](C[C@@H](C)[C@@H]2CC(=O)[C@H](C)/C=C(\C)[C@@H](O)[C@@H](OC)C(=O)[C@H](C)C[C@H](C)/C=C/C=C/C=C(\C)C(OCC(COCCC#N)(COCCC#N)COCCC#N)C[C@@H]3CC[C@@H](C)[C@@](O)(O3)C(=O)C(=O)N3CCCC[C@H]3C(=O)O2)CC[C@H]1O (stereo partly drawn) [I-101, 3-[2,2-bis(2-cyanoethoxymethyl)-3-[[(21E, 23E,25E,26E,41R,42S,43R,44R,46S,48S,51S,52R,53R,62R)-52,62-dihydroxy-51-[(1R)-2-[(1S, 3R,4R)-4-hydroxy-3-methoxy-cyclohexyl]-1-methyl-ethyl]-53-methoxy-41, 42,43,44,54,55-hexamethyl-56,57,58,59,60-pentaoxo-76,77-dioxa-67-azatricyclohexatriaconta-21, 23,25(54),26(55)-tetraen-50-yl]oxy]propoxy]propanenitrile] | 0.1 to 1 | YES | strong inhibition; also recorded: appreciable concentration dependent inhibition; also recorded: moderate concentration dependent inhibition | do not inhibit
2 | CO[C@@H]1CC(C[C@@H](C)C2CC(=O)[C@H](C)/C=C(\C)[C@@H](O)[C@@H](OC)C(=O)[C@H](C)C[C@H](C)/C=C/C=C/C=C(\C)[C@@H](OCCOCC(F)(F)F)C[C@@H]3CC[C@@H](C)[C@@](O)(O3)C(=O)C(=O)N3CCCC[C@H]3C(=O)O2)CC[C@H]1OCCO (stereo partly drawn) [I-71, (21E,23E,25E,26E,33R,34S,35R,36R,38S,40S,42S,43S,44R,45R,54R)-44, 54-dihydroxy-43-[(1R)-2-[(1S,3R,4R)-4-(2-hydroxyethoxy)-3-methoxy-cyclohexyl]-1-methyl-ethyl]-45-methoxy-33, 34,35,36,46,47-hexamethyl-42-[2-(2,2,2-trifluoroethoxy)ethoxy]-65,66-dioxa-56-azatricyclohexatriaconta-21,23,25(46),26(47)-tetraene-48, 49,50,51,52-pentone] | 0.1 to 1 | YES | strong inhibition | do not inhibit
3 | CO[C@@H]1C[C@H](C[C@@H](C)[C@@H]2CC(=O)[C@H](C)/C=C(\C)[C@@H](O)[C@@H](OC)C(=O)[C@H](C)C[C@H](C)/C=C/C=C/C=C(\C)C(OCCOCCOCCOCCOCCOCCOCCOCCOCCOCCOCCO)C[C@@H]3CC[C@@H](C)[C@@](O)(O3)C(=O)C(=O)N3CCCC[C@H]3C(=O)O2)CC[C@H]1O (stereo partly drawn) [I-96, (21E,23E,25E,26E,50R,51S,52R,53R,55S,57S,60S,61R,62R,71R)-61, 71-dihydroxy-59-[2-[2-[2-[2-[2-[2-[2-[2-[2-[2-(2-hydroxyethoxy)ethoxy]ethoxy]ethoxy]ethoxy]ethoxy]ethoxy]ethoxy]ethoxy]ethoxy]ethoxy]-60-[(1R)-2-[(1S,3R,4R)-4-hydroxy-3-methoxy-cyclohexyl]-1-methyl-ethyl]-62-methoxy-50, 51,52,53,63,64-hexamethyl-82,83-dioxa-72-azatricyclohexatriaconta-21, 23,25(63),26(64)-tetraene-65,66,67,68,69-pentone] | 0.1 to 1 | YES | strong inhibition | do not inhibit
4 | CO[C@@H]1C[C@H](C[C@@H](C)[C@@H]2CC(=O)[C@H](C)/C=C(\C)[C@@H](O)[C@@H](OC)C(=O)[C@H](C)C[C@H](C)/C=C/C=C/C=C(\C)[C@@H](OCCCC(=O)N(C)C)C[C@@H]3CC[C@@H](C)[C@@](O)(O3)C(=O)C(=O)N3CCCC[C@H]3C(=O)O2)CC[C@H]1OCCO [I-62, 4-[[(23E, 25E,27E,28E,35R,36S,37R,38R,40S,42S,44S,45S,46R,47R,57R)-46,57-dihydroxy-45-[(1R)-2-[(1S, 3R,4R)-4-(2-hydroxyethoxy)-3-methoxy-cyclohexyl]-1-methyl-ethyl]-47-methoxy-35, 36,37,38,48,49-hexamethyl-50,51,52,53,54-pentaoxo-69,70-dioxa-58-azatricyclohexatriaconta-23, 25,27(48),28(49)-tetraen-44-yl]oxy]-N,N-dimethyl-butanamide] | 1 to 10 | YES | strong inhibition | do not inhibit
5 | CO[C@H]1C[C@@H]2CC[C@@H](C)[C@@](O)(O2)C(=O)C(=O)N2CCCC[C@H]2C(=O)O[C@H]([C@H](C)C[C@@H]2CC[C@@H](OC(=O)C(C)(CO)CO)[C@H](OC)C2)CC(=O)[C@H](C)/C=C(\C)[C@@H](O)[C@@H](OC)C(=O)[C@H](C)C[C@H](C)/C=C/C=C/C=C/1C [temsirolimus, reference compound] |  |  | strong inhibition | dose dependent inhibition
6 | CO[C@@H]1C[C@H](C[C@@H](C)[C@@H]2CC(=O)[C@H](C)/C=C(\C)[C@@H](O)[C@@H](OC)C(=O)[C@H](C)C[C@H](C)/C=C/C=C/C=C(\C)[C@@H](OCC(CO)CO)C[C@@H]3CC[C@@H](C)[C@@](O)(O3)C(=O)C(=O)N3CCCC[C@H]3C(=O)O2)CC[C@H]1O [I-5] |  | YES | strong inhibition | do not inhibit
7 | CO[C@H]1C[C@@H]2CC[C@@H](C)[C@@](O)(O2)C(=O)C(=O)N2CCCC[C@H]2C(=O)O[C@H]([C@H](C)C[C@@H]2CC[C@@H](OP(C)(C)=O)[C@H](OC)C2)CC(=O)[C@H](C)/C=C(\C)[C@@H](O)[C@@H](OC)C(=O)[C@H](C)C[C@H](C)/C=C/C=C/C=C/1C [ridaforolimus, reference compound] |  |  | strong inhibition | dose dependent inhibition
8 | CO[C@@H]1C[C@H](C[C@@H](C)[C@@H]2CC(=O)[C@H](C)/C=C(\C)[C@@H](O)[C@@H](OC)C(=O)[C@H](C)C[C@H](C)/C=C/C=C/C=C(\C)[C@@H](OCC3COCCOCCOCCOCCO3)C[C@@H]3CC[C@@H](C)[C@@](O)(O3)C(=O)C(=O)N3CCCC[C@H]3C(=O)O2)CC[C@H]1O (stereo partly drawn) [I-108, (30E, 32E,34E,35E,38R,39S,40R,41R,43S,45S,47S,48S,50R,51R,60R)-50, 60-dihydroxy-48-[(1R)-2-[(1S,3R,4R)-4-hydroxy-3-methoxy-cyclohexyl]-1-methyl-ethyl]-51-methoxy-38, 39,40,41,52,53-hexamethyl-47-(1,4,7,10,13-pentaoxacyclopentadec-2-ylmethoxy)-75, 76-dioxa-61-azatricyclohexatriaconta-30, 32,34(52),35(53)-tetraene-54,55,56,57,58-pentone] | 0.1 to 1 | YES |  | 
9 | COCCOCCO[C@@H]1C[C@@H]2CC[C@@H](C)[C@@](O)(O2)C(=O)C(=O)N2CCCC[C@H]2C(=O)O[C@H]([C@H](C)C[C@@H]2CC[C@@H](OCCO)[C@H](OC)C2)CC(=O)[C@H](C)/C=C(\C)[C@@H](O)[C@@H](OC)C(=O)[C@H](C)C[C@H](C)/C=C/C=C/C=C/1C [I-104, (22E,24E,26E,27E,35R,36S,37R,38R,40S,42S,44R,45S,46R,47R,56R)-46, 56-dihydroxy-45-[(1R)-2-[(1S,3R, 4R)-4-(2-hydroxyethoxy)-3-methoxy-cyclohexyl]-1-methyl-ethyl]-47-methoxy-44-[2-(2-methoxyethoxy)ethoxy]-35,36,37,38,48,49-hexamethyl-66, 67-dioxa-57-azatricyclohexatriaconta-22,24,26(48),27(49)-tetraene-50,51,52,53,54-pentone] | 0.1 to 1 | YES |  | 
